Experimental data published in US7709259B2, “Enhancement of mammalian embryo development” (Board of Regents of the University of Texas System, priority 2003, dated 2010).
“Also recorded” adds a separate entry of the source.

Columns and labels:
[1] = test system: mouse embryos; experiment: Complete hatching of cultured two-cell mouse embryos; type: cell-based; conditions: for effect on complete hatching: 0.1 μM
Procedure: Mice were kept under controlled temperature, humidity, and light cycle (12 hour light/dark cycle) conditions with free access to water and food. Three-week old C57B1/6 female mice were purchased from Harlan (Indianapolis, Ind., USA). Eight-week old C3H male mice were purchased initially from Harlan and later from The Jackson Laboratory (Bar Harbor, Me., USA). Superovulation in the female mice was achieved by intraperitoneal injection of pregnant mare serum gonadotropin (5 IU), followed by human chorionic gonadotropin (hCG, 5 IU) 46 hours later. After receiving hCG, each female mouse was paired with one fertile male mouse. Forty-eight hours later, two-cell embryos were harvested from the oviduct into α-MEM media supplemented with 25 mM HEPES and 1% BSA (Irvine Scientific).
Embryos (17-20 per group) were cultured at 37° C. under 5% CO2 in a four-well dish (Nalge Nunc International, Naperville, Ill., USA) containing 600 μl of medium in each well. The HTF and the α-MEM media were used sequentially during the 96-hour period to meet the changing nutritional requirements of the cleaving embryos [Gardner, 1998]. The HTF medium (SAGE Biopharma) was used during the first 48 hours, and the α-MEM medium (Irvine Scientific), with Earle's Salts and 2 mM glutamine, was used during the second 48 hours. The experimental embryos received Iloprost in water and the control embryos received an equal amount of water. […] After 96-hour culture, each embryo was examined for the presence of the zona pellucida. Embryos completely free of the zona pellucida were counted as having completely hatched. The rate of complete hatching was determined by dividing the number of completely hatched embryos by the total number of embryos. Complete hatching of embryos was chosen as an endpoint instead of blastocyst formation or embryo hatching because the latter two markers are not correlated with establishment of a viable pregnancy [Lane, 1997].
Student's t-test or one-way analysis of variance followed by Dunnett test were used where appropriate. A p<0.05 was considered statistically significant. Construction of dose response curves and calculation of ED50 values (with the Hill slope set at 1.0) were completed with the GraphPad Prism® software (GraphPad Prism Software Inc., San Diego, Calif., USA).

[2] = test system: intact mouse embryos (blastocysts); experiment: Whole embryo radioligand binding assay (3H-Iloprost); conditions: 0.1 μM 3H-Iloprost, with or without 5 μM unlabeled Iloprost, 116 blastocysts
Procedure: Analysis of the binding of ^3H-Iloprost to blastocysts was performed as previously described [Arbab, 2002] with slight modification. Two hundred thirty-two hatched and hatching blastocysts were washed three times in binding buffer (10 mM MnCl2 in 10 mM HEPES, pH 7.4) and then transferred to 100 μl of binding buffer with or without unlabeled Iloprost (5 μM). The reaction was started by adding an equal amount of binding buffer containing ^3H-Iloprost (200 nM, specific activity 11.0 Ci/mmol, Amersham Biosciences) and incubating for 60 min at room temperature. The reaction was terminated by transferring the blastocysts to 2 ml of ice-cold wash buffer (0.01% BSA in 10 mM HEPES, pH 7.4). The buffer and the blastocysts were filtered through glass fiber filters (Whatman GF/C 2.4 cm) and the filters were washed three times with 2 ml of wash buffer. The filters were dried in an oven before the radioactivity was determined by scintillation counting with 5 ml of scintillation fluid.

[3] = test system: mouse embryos; experiment: Developmental stage of cultured embryos at the time of transfer; type: cell-based
Procedure: (§1) Mouse embryos were harvested and cultured as described above, and subsequently published by the present inventor (Huang et al., 2003). Briefly, two-cell embryos ([…]) were harvested from super-ovulated, three-week old C57B1/6 female mice 42 hours after hCG injection. The embryos (14 per group) were cultured at 37° C. under 5% CO2 in four-well dish (Nalge Nunc International, Naperville, Ill., USA) each containing 600 μl HTF media (SAGE Biopharma, Bedminster, N.J., USA). The experimental embryos received Iloprost (1 μM, Caymen Chemical, Ann Arbor, Mich., USA) in water and the control embryos, an equal amount of water. In either case, the volume of water was less than 0.1% of the culture media.
(§2) Embryo transfer was performed on 2.5 day of pseudopregnancy under a dissecting microscope (Olympus SZ-PT). Surgical anesthesia was obtained through intraperitoneal injection of ketamine (200 mg/Kg) and xylazine (10 mg/Kg) (both from Burns Vet Supply Inc. TX, USA). Each uterine horn was accessed via a 2-cm flank incision. With the proximal oviduct held by a pair of forceps, an opening was created at the distal end of the uterine horn on the anti-mesenteric side with a 30 gauge needle. The opening permits the entry of transfer pipette which has an inner diameter of 135 μm (MidAtlantic Diagnostics, Inc. NJ, USA). Up to seven embryos in 0.8 μl of transfer media (α MEM with 25 mM HEPES and 1% BSA) were transferred to each horn. After each transfer, contents of the pipette were examined under a stereo microscope to identify retained embryos. The flank incision was closed with 9 mm metallic clips (Clay Adams, Parsippany, N.J., USA). To avoid mixing of control and experimental embryos due to embryo migration from one horn to the other (personal communication with Dr. Andreas Zimmer, University of Bonn, Germany), each gestational carrier received either control or experimental embryos. To maintain consistent transfer techniques, the embryo transfer was performed according to the same protocol and by one individual, who was blinded to the treatment the embryos being placed received. To ensure that both groups benefited equally from the experience gained over the course of the study (˜6 months), the embryos were assigned treatments (control or Iloprost) in blocks of four.

[4] = test system: mouse embryos; experiment: Implantation rate 72 hours after transfer of cultured embryos to gestational carriers; type: in vivo
Procedure: as §1
The day after the embryo donors received hCG, vaginal smears were obtained from potential gestational carriers (eight week old C3B6F1 female mice) to determine the stage of estrus cycle. […]
Seventy-two hours after embryo transfer, implantation was determined based on a previously described method with some modifications (Paria et al., 1993). […] Discrete blue bands (indicated by *) encircling the uterine horns were counted (FIG. 6A). […] The uterine horns were then opened and the gestation sacs counted (FIG. 6B). The implantation rate was expressed as the number of gestation sacs per embryo transferred. […]

[5] = test system: mouse embryos; experiment: Live birth rate, implantation rate and weights of pups and placentae 14 days after embryo transfer; type: in vivo
Procedure: as §1
The day after the embryo donors received hCG, vaginal smears were obtained from potential gestational carriers (eight week old C3B6F1 female mice) to determine the stage of estrus cycle. Those in estrus were paired with vasectomized ICR males (Harlan) and checked for vaginal plugs on the following morning. Those with plugs were designated to be 0.5 day pseudopregnant.
as §2
In order to count and weigh the pups accurately, we sacrificed gestational carriers 14 days after embryo transfer (16.5 days of pregnancy or two days before natural birth). After euthanasia, the number of live pups was counted and the weight of individual pup and placenta was determined. All pups were examined for gross anomalies. The number of empty gestation sacs was also counted in order to determine the implantation rate. The live birth rate was expressed as the number of live pups per embryo transferred; the implantation rate was expressed as the number of sacs, with or without live pups, per embryo transferred.
The Fisher's exact test was used to compare the rates; the Student's t-test was used to compare the weights. A p<0.05 was considered as statistically significant. The GraphPad Instat® software (GraphPad Software Inc., San Diego, Calif., USA) was used for statistical analysis.

[6] = test system: human embryos (frozen zygotes); experiment: Blastocyst formation study with frozen human zygotes; type: cell-based; conditions: Frozen Zygote, 0.1 μM
Procedure: (§3) With the patients' written instructions, 101 frozen zygotes from 14 couples were used for the blastocyst formation study. The zygotes had been frozen during the period of January, 1993 to November, 2003. After overnight culture, only those embryos that had developed to 2-cell stage were used for further study. For each patient, those 2-cell stage embryos were split into a control pool or an experimental pool. All embryos were cultured in Gobal medium (a modified KSOM medium from IVF online) for 5 days with change medium at 2.5 day. The experimental group was supplemented with 0.1 μM of Iloprost (Cayman Chemical, Ann Arbor, Mich.). The control group was supplemented with vehicle (0.000001% DMSO). Chi-Square test were used to compare the number of blastocyst formed. The quality (size, inner cell mass, trophectoderm) of blastocysts was analyzed by non-parametric Wilcoxon Rank Sum Test. The statistical significance was defined at P<0.05. Another 52 donated frozen blastocysts, from 9 couples, were used for short term study. Forty-five thawed blastocysts were recovered. Those blastocysts were immediately cultured with or without Iloprost. The re-expansion of blastocoel was checked 18 hours later. The analysis of outcome was the same as the analysis for the frozen zygotes study.

[7] = test system: human frozen blastocysts; experiment: Short term study with thawed frozen human blastocysts; type: cell-based
Procedure: as §3

[8] = test system: rabbits; conditions: Iloprost given throughout the gestation period; cited from earlier work
[9] = test system: monkeys; conditions: Iloprost given throughout the gestation period; cited from earlier work
[10] = test system: rats; conditions: Iloprost given throughout the gestation period; cited from earlier work
[11] = 1 μM in HTF media, 81 embryos transferred

CC#CCC(C)[C@H](O)/C=C/[C@@H]1[C@H]2C/C(=C/CCCC(=O)O)C[C@H]2C[C@H]1O (stereo partly shown) [Iloprost]
effect on complete hatching ([1]; exposure 0-72 hours after harvest): same rates of complete hatching as did 0-96 hours exposure | effect on complete hatching ([1]; exposure 24-42 hours (eight-cell embryos to morulae)): ensured enhanced hatching | effect on complete hatching ([1]; exposure 24-72 hours after harvest): same rates of complete hatching as did 0-96 hours exposure | effect on complete hatching ([1]; exposure 42-72 hours (morulae to early blastocysts)): ensured enhanced hatching | effect on complete hatching ([1]; exposure during the first 24 hours of culture (two-cell to eight-cell)): did not enhance hatching | rate of complete hatching (mean±S.D.) ([1]; 1 μM, maximum augmentation, 96 hours, n=3, control 49±14%): 81±7% | concentration at which effects on complete hatching were statistically significant ([1]; 96 hour culture): ≥ 0.1 µM | EC50 ([1]; Mus musculus, 96 h, two-cell mouse embryos cultured 96 hours with 1 nM to 10 μM, Hill slope set at 1.0, read-out: ED50 for enhancement of complete hatching): 6.7 nM | 3H-Iloprost specifically bound [2]: approximately 3.04 fmol | Degenerated (number of embryos at transfer) [3, 11]: 0 | Hatching Blastocyst (number of embryos at transfer) [3, 11]: 2 | Morula (number of embryos at transfer) [3, 11]: 49 | Early Blastocyst (number of embryos at transfer) ([3]; 1 μM, 81 embryos transferred, blastocoele cavity <49% of the embryo): 8 | Late Blastocyst (number of embryos at transfer) ([3]; 1 μM, 81 embryos transferred, blastocoele cavity ≧50% of the embryo): 22 | embryos at the morula stage at the time of transfer ([3]; experimental and control embryos): approximately 70% | Number of gestation sacs ([4]; 72 hours after transfer of 81 embryos cultured with 1 μM, control 35): 62 | implantation rate (gestation sacs per embryo transferred) ([4]; 72 hours after transfer, control 42%): 76% | Pup weight (mean ± S.D.) ([5]; 14 days after transfer (16.5 days of pregnancy), control 0.788 ± 0.151): 0.772 ± 0.124 gm | Total number of live pups ([5]; 14 days after transfer of 415 embryos to 31 carriers, control 115): 149 | Placental weight (mean ± S.D.) ([5]; 14 days after transfer, control 0.166 ± 0.037): 0.166 ± 0.003 gm | live birth rate (live pups per embryo transferred) ([5]; 14 days after transfer, control 28%): 36% | implantation rate (sacs with or without live pups per embryo transferred) ([5]; 14 days after transfer, control 46%): 59% | gross anomalies of pups ([5]; embryos exposed during the pre-implantation period, live pups examined): no gross anomalies; also recorded: no digit reduction or other anomalies | blastocysts formed / embryos ([6]; 5 days culture, control 11/26): (18/26) | Blastocyst formation rate ([6]; 5 days culture, control 42%): 69% | ICM (coding A = 3, B = 2, C = 1) ([6]; inner cell mass, control 0.50): 1.42 | Size (score 1-6) ([6]; morula or degenerated = 0, control 1.42): 3.04 | TRO (coding A = 3, B = 2, C = 1) ([6]; trophectoderm, control 0.46): 1.31 | TRO (coding A = 3, B = 2, C = 1) ([7]; Frozen blastocyst, 18 hours, control 0.68): 0.78 | ICM (coding A = 3, B = 2, C = 1) ([7]; Frozen blastocyst, 18 hours, control 0.72): 0.86 | Size (score 1-6) ([7]; Frozen blastocyst, 18 hours, control 1.45): 1.47 | blastocysts / thawed blastocysts ([7]; Frozen blastocyst, 18 hours, control 11/22): (11/23) | Blastocyst formate rate ([7]; re-expansion of blastocoel checked 18 hours after thaw, control 50%): 48% | embryonic and fetal development [8]: not affected | embryonic and fetal development [9]: not affected | embryonic and fetal development [10]: digit reduction

CCCCC[C@H](O)/C=C/[C@H]1[C@H](O)CC(=O)[C@@H]1C/C=C\CCCC(=O)O [PGE2, prostaglandin E2]
effect on complete hatching of cultured mouse embryos ([1]; preliminary data): enhanced the complete hatching
